According to patent US20130317029A1 (PORTOLA PHARMACEUTICALS, INC., priority 2010, published 2013):

molecular target: T1, full length active recombinant SYK enzyme (Homo sapiens, UniProt P43405); experiment: Inhibition of Syk tyrosine phosphorylation activity (LANCE TR-FRET kinase assay); assay type: biochemical
T1 construct: full length active recombinant SYK enzyme (Millipore, Calif.); purchased Millipore
From the text: This example illustrates methods for evaluating the compounds of the invention, along with results obtained for such assays. The in vitro and in vivo human Syk activities of the inventive compounds can be determined by various procedures known in the art, such as a test for their ability to inhibit the activity of human plasma Syk. […] The IC50 value is the concentration (in nM) of the compound required to provide 50% inhibition of human Syk proteolytic activity.
Potency of candidate molecules for inhibiting Syk tyrosine phosphorylation activity is assessed by measuring the ability of a test compound to inhibit Syk-mediated tyrosine phosphorylation of a Syk-specific substrate.
SYK tyrosine phosphorylation activity is measured using the LANCE™ Technology developed by Perkin Elmer Life and Analytical Sciences (Boston, Mass.). LANCE™ refers to homogeneous time resolved fluorometry applications using techniques such as time-resolved fluorescence resonance energy transfer assay (TR-FRET) (see generally for procedures in Perkin Elmer Application Note—How to Optimize a Tyrosine Kinase Assay Using Time Resolved Fluorescence-Based LANCE Detection, wwww.perkinelmer.com/lifesciences). The assay principle involves detection of a phosphorylated substrate using energy transfer from a phosphospecific europium-labeled antibody to streptavidin-allophycocyanin as an acceptor.
To test the ability of candidate molecules to inhibit SYK tyrosine phosphorylation activity, molecules are reconstituted in 30% DMSO and serially diluted 1:3 with the final dilution containing DMSO in the absence of the candidate molecule. The final DMSO concentration in the assay is 3%. Kinase assays are performed as a two part reaction. The first reaction is a kinase reaction and which comprises of a candidate molecule, full length active recombinant SYK enzyme (Millipore, Calif.) and biotin-labeled SYK-specific substrate biotin-[…]-OH. The second reaction involves termination of the kinase reaction and the simultaneous addition of the detection reagents-europium-labeled anti-phosphotyrosine reagent (Eu-W1024-PY100, Perkin Elmer, Boston, Mass.) and Streptavidin-Allophycocyanin detection reagent (SA-APC, Prozyme, Calif.). The kinase reaction is performed in a black U-bottom 96-well microtitre plate. The final reaction volume is 50 μL and contains a final concentration of 1 nM active SYK enzyme, 550 nM SYK-substrate, and 100 μM ATP diluted in a buffer containing 50 mM Tris pH 7.5, 5 mM MgCl2, and 1 mM DTT. The reaction is allowed to proceed for 1 hour at room temperature. The quench buffer contains 100 mM Tris pH 7.5, 300 mM NaCl2, 20 mM EDTA, 0.02% Brij35, and 0.5% BSA. The detection reagents are added to the reaction mixture at the following dilutions-1:500 for Eu-W1024-PY100 and 1:250 for SA-APC. The kinase reaction is terminated by the addition of 50 μL quench buffer containing the detection reagents. The detection is allowed to proceed for 1 hr at room temperature. Detection of the phosphorlated substrate in the absence and presence of inhibitors is measured in the TR-FRET instrument, Analyst HT (Molecular Probes, Sunnyvale, Calif.) and the condition for measurements are set up using CriterionHost Release 2.0 (Molecular Probes, Sunnyvale, Calif.). The settings used are a follows: excitation 360 nm, emission 665-7.5 nm, beam splitter 350 nm 50/50, flash 100 pulses, delay 60 us, integration 400 us, z-height 2 mm. Inhibition of SYK-tyrosine kinase activity is calculated as the maximum response observed in the presence of inhibitor, compared to that in the absence of inhibitor. IC50s were derived by non-linear regression analysis.

Row | IC50 [nM] | Structure (SMILES)
1 | 10 to 100 | COc1nc(N[C@@H](C(N)=O)C(C)C)nc(Nc2cc(C)cc(C)c2)c1C(N)=O [Example 1, (R)-2-(1-amino-3-methyl-1-oxobutan-2-ylamino)-4-(3,5-dimethylphenylamino)-6-methoxypyrimidine-5-carboxamide]
2 | 1 to 10 | Cc1cc(C)cc(Nc2nc(N[C@@H](C(N)=O)C(C)C)[nH]c(=O)c2C(N)=O)c1 [Example 2, (R)-2-(1-amino-3-methyl-1-oxobutan-2-ylamino)-4-(3,5-dimethylphenylamino)-6-oxo-1,6-dihydropyrimidine-5-carboxamide]
3 | 10 to 100 | COc1nc(N[C@@H]2CCCC[C@@H]2N)nc(Nc2cccc(-n3nccn3)c2)c1C(N)=O [Example 3, 2-((1R,2S)-2-aminocyclohexylamino)-4-(3-(2H-1,2,3-triazol-2-yl)phenylamino)-6-methoxypyrimidine-5-carboxamide]
4 | 100 to 1000 | CCOc1nc(N[C@@H](C(N)=O)C(C)C)nc(Nc2cc(C)cc(C)c2)c1C(N)=O [Example 4, (R)-2-(1-amino-3-methyl-1-oxobutan-2-ylamino)-4-(3,5-dimethylphenylamino)-6-ethoxypyrimidine-5-carboxamide]
5 | 1 to 10 | NC(=O)c1c(Nc2cccc(-n3nccn3)c2)nc(N[C@@H]2CCCC[C@@H]2N)[nH]c1=O [Example 5]
6 | 1 to 10 | CC(C)[C@@H](Nc1nc(Nc2cccc(-n3nccn3)c2)c(C(N)=O)c(=O)[nH]1)C(N)=O [Example 6, (R)-4-(3-(2H-1,2,3-triazol-2-yl)phenylamino)-2-(1-amino-3-methyl-1-oxobutan-2-ylamino)-6-oxo-1,6-dihydropyrimidine-5-carboxamide]
7 | 10 to 100 | CC(C)C[C@@H](Nc1nc(Nc2cccc(-n3nccn3)c2)c(C(N)=O)c(=O)[nH]1)C(N)=O [Example 7, (R)-4-(3-(2H-1,2,3-triazol-2-yl)phenylamino)-2-(1-amino-4-methyl-1-oxopentan-2-ylamino)-6-oxo-1,6-dihydropyrimidine-5-carboxamide]
8 | 10 to 100 | CC[C@@H](Nc1nc(Nc2cccc(-n3nccn3)c2)c(C(N)=O)c(=O)[nH]1)C(N)=O [Example 8, (R)-4-(3-(2H-1,2,3-triazol-2-yl)phenylamino)-2-(1-amino-1-oxobutan-2-ylamino)-6-oxo-1,6-dihydropyrimidine-5-carboxamide]
9 | 1 to 10 | Cc1cccc(Nc2nc(N[C@H](CC(C)C)C(N)=O)[nH]c(=O)c2C(N)=O)c1 [Example 9, (R)-2-(1-amino-4-methyl-1-oxopentan-2-ylamino)-6-oxo-4-(m-tolylamino)-1,6-dihydropyrimidine-5-carboxamide]
10 | 1 to 10 | Cc1cccc(Nc2nc(N[C@@H](C(N)=O)C(C)C)[nH]c(=O)c2C(N)=O)c1 [Example 10, (R)-2-(1-amino-3-methyl-1-oxobutan-2-ylamino)-6-oxo-4-(m-tolylamino)-1,6-dihydropyrimidine-5-carboxamide]
11 | 1 to 10 | CC[C@@H](Nc1nc(Nc2cccc(C)c2)c(C(N)=O)c(=O)[nH]1)C(N)=O [Example 11, (R)-2-(1-amino-1-oxobutan-2-ylamino)-6-oxo-4-(m-tolylamino)-1,6-dihydropyrimidine-5-carboxamide]
12 | 1 to 10 | Cc1cc(C)cc(Nc2nc(N[C@@H](CN)C(C)C)[nH]c(=O)c2C(N)=O)c1 [Example 12, (R)-2-(1-amino-3-methylbutan-2-ylamino)-4-(3,5-dimethylphenylamino)-6-oxo-1,6-dihydropyrimidine-5-carboxamide]
13 | < 1 | CC(C)C[C@@H](Nc1nc(Nc2ccc3ncccc3c2)c(C(N)=O)c(=O)[nH]1)C(N)=O [Example 13, (R)-2-(1-amino-4-methyl-1-oxopentan-2-ylamino)-6-oxo-4-(quinolin-6-ylamino)-1,6-dihydropyrimidine-5-carboxamide]
14 | 10 to 100 | CNCCNc1nc(Nc2cccc(C)c2)c(C(N)=O)c(=O)[nH]1 [Example 14]
15 | 10 to 100 | COc1nc(N[C@@H](C(N)=O)C(C)C)nc(Nc2ccc3ncccc3c2)c1C(N)=O [Example 15, (R)-2-(1-amino-3-methyl-1-oxobutan-2-ylamino)-4-methoxy-6-(quinolin-6-ylamino)pyrimidine-5-carboxamide]
16 | 10 to 100 | CC[C@@H](Nc1nc(Nc2ccc3ncccc3c2)c(C(N)=O)c(OC)n1)C(N)=O [Example 16, (R)-2-(1-amino-1-oxobutan-2-ylamino)-4-methoxy-6-(quinolin-6-ylamino)pyrimidine-5-carboxamide]
17 | 10 to 100 | CC[C@@H](Nc1nc(Nc2ccc3c(ccc[n+]3[O-])c2)c(C(N)=O)c(OC)n1)C(N)=O [Example 17, (R)-6-(2-(1-amino-1-oxobutan-2-ylamino)-5-carbamoyl-6-methoxypyrimidin-4-ylamino)quinoline 1-oxide]
18 | 1 to 10 | CC(C)C[C@@H](Nc1nc(Nc2ccc(-n3cccn3)cc2)c(C(N)=O)c(=O)[nH]1)C(N)=O [Example 18]
19 | 1 to 10 | CC(C)[C@@H](Nc1nc(Nc2ccc(-n3cccn3)cc2)c(C(N)=O)c(=O)[nH]1)C(N)=O [Example 19]
20 | 1 to 10 | CC(C)[C@@H](Nc1nc(Nc2ccc3ncccc3c2)c(C(N)=O)c(=O)[nH]1)C(N)=O [Example 20, (R)-2-(1-amino-3-methyl-1-oxobutan-2-ylamino)-6-oxo-4-(quinolin-6-ylamino)-1,6-dihydropyrimidine-5-carboxamide]
21 | < 1 | CC[C@@H](Nc1nc(Nc2ccc3ncccc3c2)c(C(N)=O)c(=O)[nH]1)C(N)=O [Example 21, (R)-2-(1-amino-1-oxobutan-2-ylamino)-6-oxo-4-(quinolin-6-ylamino)-1,6-dihydropyrimidine-5-carboxamide]
22 | 1 to 10 | CC(C)[C@H](CN)Nc1nc(Nc2cccc(-n3nccn3)c2)c(C(N)=O)c(=O)[nH]1 [Example 22, (R)-4-(3-(2H-1,2,3-triazol-2-yl)phenylamino)-2-(1-amino-3-methylbutan-2-ylamino)-6-oxo-1,6-dihydropyrimidine-5-carboxamide]
23 | 10 to 100 | CNCCNc1nc(Nc2cccc(-n3nccn3)c2)c(C(N)=O)c(=O)[nH]1 [Example 23, 4-(3-(2H-1,2,3-triazol-2-yl)phenylamino)-2-(2-(methylamino)ethylamino)-6-oxo-1,6-dihydropyrimidine-5-carboxamide]
24 | 1 to 10 | CC[C@@H](Nc1nc(Nc2ccc(-n3cccn3)cc2)c(C(N)=O)c(=O)[nH]1)C(N)=O [Example 24]
25 | < 1 | CC(C)C[C@@H](Nc1nc(Nc2ccc3[nH]ncc3c2)c(C(N)=O)c(=O)[nH]1)C(N)=O [Example 25, (R)-4-(1H-indazol-5-ylamino)-2-(1-amino-4-methyl-1-oxopentan-2-ylamino)-6-oxo-1,6-dihydropyrimidine-5-carboxamide]
26 | < 1 | CC(C)[C@@H](Nc1nc(Nc2ccc3[nH]ncc3c2)c(C(N)=O)c(=O)[nH]1)C(N)=O [Example 26, (R)-4-(1H-indazol-5-ylamino)-2-(1-amino-3-methyl-1-oxobutan-2-ylamino)-6-oxo-1,6-dihydropyrimidine-5-carboxamide]
27 | 1 to 10 | CC(C)C[C@@H](Nc1nc(Nc2cccc(-c3ncccn3)c2)c(C(N)=O)c(=O)[nH]1)C(N)=O [Example 27, (R)-2-(1-amino-4-methyl-1-oxopentan-2-ylamino)-6-oxo-4-(3-(pyrimidin-2-yl)phenylamino)-1,6-dihydropyrimidine-5-carboxamide]
